Among the test systems are SW-620 colon; NCI-H522 lung; UACC-257 melanoma; LOX IMVI melanoma; MDA-MB-435; SK-MEL-28 melanoma; SF-268 CNS; TK-10 renal; OVCAR-4 ovarian; PC-3 prostate.
Holding throughout (experiment): NCI anticancer screen, dose series, 48 h

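Results reflect a 48-hour exposure of cells in 96-well plates to compound at five concentrations. Here, GI50 denotes the concentration required for 50% inhibition of growth. TGI is the concentration that stops growth completely.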

The results in this text go back to PubChem BioAssay (NCI).

With `COc1cc(/C=C/C(=O)/C=C/c2cc3ccc(Cl)cc3n(Cc3ccccc3)c2=O)ccc1O`, the GI50 with SW-620 colon is 1.56 µM; with NCI-H522 lung, 1.67 µM; in the experiment on UACC-257 melanoma, 2.06 µM; in the experiment on LOX IMVI melanoma it was 1.29 µM; in the experiment with MDA-MB-435, 0.862 µM; with SK-MEL-28 melanoma, 1.85 µM. For the same compound, the GI50 with SF-268 CNS was 2.16 µM; in the experiment with TK-10 renal, 2.44 µM; in the experiment on OVCAR-4 ovarian, 2.48 µM; in the experiment on PC-3 prostate, 1.92 µM. Further, the TGI was 4.33 µM in the experiment on SW-620 colon; 3.5 µM in the experiment on NCI-H522 lung; 4.83 µM with UACC-257 melanoma; 2.61 µM in the experiment with LOX IMVI melanoma; 4.32 µM in the experiment with MDA-MB-435; 5.53 µM with SK-MEL-28 melanoma. Moreover, the TGI amounted to 7.47 µM in the experiment with SF-268 CNS, 5.5 µM in the experiment on TK-10 renal, 37.8 µM in the experiment with OVCAR-4 ovarian and 5.6 µM in the experiment with PC-3 prostate.
On to `O=C(CCl)Nc1cc(Cl)c(Cl)cc1Cl`, for which the TGI with SW-620 colon stood at 5.72 µM; in the experiment with NCI-H522 lung it was 2.02 µM; with UACC-257 melanoma, 3.24 µM; in the experiment with LOX IMVI melanoma, 3.03 µM; in the experiment with MDA-MB-435, 2.77 µM; with SK-MEL-28 melanoma, 4.04 µM. In addition, the TGI in the experiment with SF-268 CNS was 4.62 µM; in the experiment on TK-10 renal, 3.27 µM; in the experiment with OVCAR-4 ovarian it was 4.06 µM; with PC-3 prostate, 3.29 µM.
Turning to `ClCc1ccc(Cn2cnc3c(Cl)ncnc32)cc1`, the GI50 is 7.67 µM in the experiment on SW-620 colon; 11.5 µM in the experiment with NCI-H522 lung; 24.2 µM with UACC-257 melanoma; 5.8 µM with LOX IMVI melanoma; 13 µM with MDA-MB-435; over 28.1 µM in the experiment on SK-MEL-28 melanoma. For the same compound, the GI50 with SF-268 CNS was 6.03 µM; in the experiment on TK-10 renal, 11.3 µM; with PC-3 prostate it was 18 µM. Moreover, the TGI in the experiment with SW-620 colon was 19.4 µM; in the experiment on NCI-H522 lung, 75.7 µM; with UACC-257 melanoma it was 50 µM; with LOX IMVI melanoma it was 20.4 µM; in the experiment on MDA-MB-435, 23.3 µM; in the experiment on SK-MEL-28 melanoma, over 55.7 µM. Further, the TGI in the experiment on SF-268 CNS was 16.5 µM; in the experiment on TK-10 renal it was 23.6 µM; with OVCAR-4 ovarian, over 25.7 µM; in the experiment on PC-3 prostate, 56.3 µM.
On to `O=C(/C=C/C(Cl)(Cl)Cl)Nc1ccc(Cl)cc1`, for which the TGI in the experiment with SW-620 colon is 14 µM; in the experiment with NCI-H522 lung, 1.43 µM; with UACC-257 melanoma, 35.7 µM; with LOX IMVI melanoma, 2.2 µM; in the experiment on MDA-MB-435, 12.4 µM; with SK-MEL-28 melanoma, 35.1 µM. The TGI in the experiment on SF-268 CNS is 9.82 µM; with TK-10 renal, 5.73 µM; with OVCAR-4 ovarian, 4.02 µM; in the experiment with PC-3 prostate it was 26.5 µM.
In the case of `CCOC(=O)c1c(NC(=O)c2ccccc2)sc2c3c(ccc12)OCN(C)C3`, the GI50 in the experiment on SW-620 colon is 1.63 µM; in the experiment on NCI-H522 lung, 1.66 µM; in the experiment with UACC-257 melanoma, 1.97 µM; in the experiment with LOX IMVI melanoma, 1.62 µM; with MDA-MB-435, 1.64 µM; in the experiment on SK-MEL-28 melanoma, 1.71 µM. The GI50 with SF-268 CNS was 1.77 µM; in the experiment on TK-10 renal, 1.81 µM; in the experiment with OVCAR-4 ovarian, 1.75 µM; with PC-3 prostate, 1.53 µM. Besides, the TGI in the experiment with SW-620 colon came out at 3.32 µM; in the experiment on NCI-H522 lung, 3.62 µM; in the experiment with UACC-257 melanoma it was 3.85 µM; in the experiment with LOX IMVI melanoma it was 3.03 µM; with MDA-MB-435, 3.02 µM; with SK-MEL-28 melanoma, 3.15 µM. The TGI with SF-268 CNS is 3.59 µM; in the experiment with TK-10 renal, 3.54 µM; with OVCAR-4 ovarian, 3.13 µM; in the experiment on PC-3 prostate it was 3 µM.
As for `COc1ccc(C(=O)O[C@H]2[C@H](O[C@H]3[C@@H](O)COC(O[C@H]4C[C@H]5[C@@H]6CC=C7C[C@@H](O)CC[C@]7(C)[C@H]6CC[C@]5(C)[C@H]4[C@H](C)C(=O)CCC(C)C)[C@@H]3OC(C)=O)OC[C@@H](O)[C@@H]2O)c(C)c1` (some centres undefined), the GI50 is under 0.01 µM in the experiment on SW-620 colon; 0.0114 µM in the experiment with NCI-H522 lung; 0.0196 µM in the experiment with UACC-257 melanoma; under 0.01 µM in the experiment on LOX IMVI melanoma; under 0.01 µM in the experiment with MDA-MB-435; under 0.01 µM in the experiment with SK-MEL-28 melanoma. The GI50 in the experiment with SF-268 CNS is under 0.01 µM; with TK-10 renal, 0.27 µM; in the experiment with OVCAR-4 ovarian, 0.717 µM; in the experiment with PC-3 prostate, under 0.01 µM. Moreover, the TGI is 0.187 µM in the experiment on SW-620 colon; 0.607 µM in the experiment with NCI-H522 lung; 0.0621 µM in the experiment with UACC-257 melanoma; 0.0173 µM in the experiment on LOX IMVI melanoma; 0.0774 µM in the experiment on MDA-MB-435; under 0.01 µM in the experiment on SK-MEL-28 melanoma. The TGI in the experiment on SF-268 CNS was 3.4 µM; in the experiment on TK-10 renal it was 34.8 µM; in the experiment on OVCAR-4 ovarian it was over 100 µM; with PC-3 prostate, 2.14 µM.
For the compound `C(=Nc1cnc2ccccc2c1)c1ccc2ccccc2n1`, the TGI with SW-620 colon, in the experiment on NCI-H522 lung, with UACC-257 melanoma, with LOX IMVI melanoma, with MDA-MB-435 and in the experiment on SK-MEL-28 melanoma was over 100 µM throughout. For the same compound, the TGI in the experiment with SF-268 CNS, in the experiment with TK-10 renal, with OVCAR-4 ovarian and in the experiment on PC-3 prostate was over 100 µM each time.
For the compound `N#Cc1ccccc1C#C/C=C\C#CC#C/C=C\C#Cc1ccccc1C#N`, the GI50 in the experiment with SW-620 colon is 9.1 µM; in the experiment on NCI-H522 lung, 3.15 µM; with UACC-257 melanoma it was 52.7 µM; in the experiment with LOX IMVI melanoma it was 17.3 µM; in the experiment on MDA-MB-435, 8.49 µM; in the experiment on SK-MEL-28 melanoma, 10.6 µM. The GI50 was 12 µM in the experiment on SF-268 CNS, 23.9 µM with TK-10 renal, 19.1 µM in the experiment on OVCAR-4 ovarian and 19.6 µM with PC-3 prostate. The TGI was over 100 µM with SW-620 colon; 14.9 µM in the experiment on NCI-H522 lung; over 100 µM in the experiment with UACC-257 melanoma; 45 µM in the experiment with LOX IMVI melanoma; 26.4 µM in the experiment with MDA-MB-435; 49.6 µM in the experiment on SK-MEL-28 melanoma. Further, the TGI in the experiment with SF-268 CNS was over 100 µM; in the experiment on TK-10 renal it was 83 µM; in the experiment with OVCAR-4 ovarian it was over 100 µM; in the experiment on PC-3 prostate, over 100 µM.
